Reference: patent publication US20230192701A1, “BICYCLIC KINASE INHIBITORS AND USES THEREOF” (iOmx Therapeutics AG, priority 2020, published 2023)

Columns and labels:
SIK3 = SIK3 (Homo sapiens, UniProt Q9Y2K2); test: radiometric protein kinase assay (33PanQinase Activity Assay), SIK3; assay type: biochemical; settings: for IC50: ATP 1.0 μM, substrate RBER-CHKtide; for inhibiting SIK3 compared to PY1 / selectivity towards SIK3 over SIK2: in words
Description: (§1) The IC50s of the compounds against the SIK family of protein-serine/threonine kinases (SIK2 and SIK3) were determined as followed. Briefly, a radiometric protein kinase assay (33PanQinase® Activity Assay) was used for measuring the kinase activity of the two protein kinases. The kinase assays were performed in 96-well FlashPlates™ from PerkinElmer (Boston, Mass., USA) in a 50 uL reaction volume. The reaction cocktail was pipetted in four steps in the following order: • […] (standard buffer/[gamma-33P]-ATP) • 10 uL of ATP solution (in water) • 5 uL of test compound (in 10% DMSO) • 20 uL enzyme/substrate mix
(§2) The following amounts of enzyme and applicable substrate were used per well:
(§3) The reaction cocktails were incubated at 30 °C for 60 minutes. The reaction was stopped with 50 uL of 2% (v/v) H3PO4, plates were aspirated and washed two times with 200 μL 0.9% (w/v) NaCl. Incorporation of 33Pi was determined with a microplate scintillation counter (Microbeta, Wallac). All assays were performed with a BeckmanCoulter/SAGIAN™ Core System.

SIK2 = SIK2 (Homo sapiens, UniProt Q9H0K1); test: radiometric protein kinase assay (33PanQinase Activity Assay), SIK2; assay type: biochemical; settings: for IC50: ATP 1.0 μM, substrate RBER-CHKtide; for inhibiting SIK2 compared to PY1: in words
Chain of SIK2 (Q9H0K1 whole entry): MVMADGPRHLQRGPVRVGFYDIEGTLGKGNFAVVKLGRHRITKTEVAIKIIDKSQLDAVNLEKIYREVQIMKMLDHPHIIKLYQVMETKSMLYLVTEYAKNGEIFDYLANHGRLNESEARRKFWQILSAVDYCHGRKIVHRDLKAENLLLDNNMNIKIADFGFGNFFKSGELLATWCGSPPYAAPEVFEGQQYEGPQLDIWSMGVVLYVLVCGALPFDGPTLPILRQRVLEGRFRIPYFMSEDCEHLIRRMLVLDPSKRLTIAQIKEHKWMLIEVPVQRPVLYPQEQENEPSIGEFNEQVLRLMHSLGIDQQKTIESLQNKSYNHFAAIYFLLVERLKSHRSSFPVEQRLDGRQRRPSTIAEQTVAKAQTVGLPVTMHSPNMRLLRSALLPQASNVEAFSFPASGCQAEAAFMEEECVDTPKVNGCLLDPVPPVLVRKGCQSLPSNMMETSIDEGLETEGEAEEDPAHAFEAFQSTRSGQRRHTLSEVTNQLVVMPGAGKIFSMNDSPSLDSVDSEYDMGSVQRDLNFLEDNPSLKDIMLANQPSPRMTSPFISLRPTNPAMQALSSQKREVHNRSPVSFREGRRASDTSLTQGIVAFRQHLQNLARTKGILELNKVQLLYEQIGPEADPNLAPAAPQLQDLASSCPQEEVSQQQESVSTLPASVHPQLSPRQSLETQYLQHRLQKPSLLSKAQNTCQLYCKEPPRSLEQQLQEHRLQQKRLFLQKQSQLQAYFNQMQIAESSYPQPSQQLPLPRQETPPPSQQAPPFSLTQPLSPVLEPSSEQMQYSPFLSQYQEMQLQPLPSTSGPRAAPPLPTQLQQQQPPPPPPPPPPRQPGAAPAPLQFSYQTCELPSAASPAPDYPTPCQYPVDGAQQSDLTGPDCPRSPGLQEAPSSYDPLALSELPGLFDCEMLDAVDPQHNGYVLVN
Description: as §1, §2, §3

MC38 tumour cells = test: TNF-sensitised cell viability assay (CellTiter-Glo), MC38; assay type: cell-based, murine; settings: for IC50: Mus musculus, MC-38, read-out: MC38 IC50 (at 100 ng/ml rMuTNF), 100 ng/ml rMuTNF, 72 h
Description: (§4) Cell viability of HCT116 tumour cells was measured using the CellTiter-Glo (CTG) luminescent cell viability assay (Promega, Madison, USA) according to the manufacturer's protocol. In short, 1×10^3 HCT116 cells were seeded in a 384-well plate for 24 h and subsequently treated with different concentrations of compounds and 10 ng/ml rHuTNF for 72 h at 37° C. and 5% CO2. After incubation, CTG reagent was added to the wells and cells were lysed for 10 min. Read-out was performed using the Tecan reader with 0.1 sec counting time. TNF-induced cell killing in human PANC1 and murine MC38 tumour cells was measured analogously to the assay in human HCT116 cells, except that for the PANC1 assay 100 ng/ml rHuTNF and for the MC38 assay 100 ng/ml rMuTNF were used.

HCT116 tumour cells = test: TNF-sensitised cell viability assay (CellTiter-Glo), HCT116; assay type: cell-based, human; settings: for IC50: Homo sapiens, HCT-116, read-out: HCT116 IC50 (at 10 ng/ml rHuTNF), 10 ng/ml rHuTNF, 72 h; for sensitisation of HCT116 tumour cells to the cytotoxic effect of TNF compared to PY1: in words
Description: as §4

PANC1 tumour cells = test: TNF-sensitised cell viability assay (CellTiter-Glo), PANC1; assay type: cell-based, human; settings: for IC50: Homo sapiens, PANC-1, read-out: PANC IC50 (at 100 ng/ml rHuTNF), 100 ng/ml rHuTNF, 72 h; for sensitisation of PANC tumour cells to the cytotoxic effects of TNF compared to PY1: in words
Description: as §4

[1] = biological target: 335 wild-type protein kinases; test: single-point inhibition assays, residual activity (ProQinase Kinase Profiler); assay type: biochemical; settings: single-point 0.1 uM and 1 uM, 335 kinases
Description: Several compounds of Formula (I) described herein were also tested in single-point (0.1 uM and 1 uM) inhibition assays over a diverse set of 335 wild-type protein (ProQinase “Kinase Profiler”; ProQinase, Freiburg, Germany), in which the residual activity of each kinase was determined. […] Secondly, the residual activity of each kinase was compared to other compounds tested (in particular, against the prior art compounds PY1) by use of scatter plots.

Chain of SIK3 (Q9Y2K2 whole entry): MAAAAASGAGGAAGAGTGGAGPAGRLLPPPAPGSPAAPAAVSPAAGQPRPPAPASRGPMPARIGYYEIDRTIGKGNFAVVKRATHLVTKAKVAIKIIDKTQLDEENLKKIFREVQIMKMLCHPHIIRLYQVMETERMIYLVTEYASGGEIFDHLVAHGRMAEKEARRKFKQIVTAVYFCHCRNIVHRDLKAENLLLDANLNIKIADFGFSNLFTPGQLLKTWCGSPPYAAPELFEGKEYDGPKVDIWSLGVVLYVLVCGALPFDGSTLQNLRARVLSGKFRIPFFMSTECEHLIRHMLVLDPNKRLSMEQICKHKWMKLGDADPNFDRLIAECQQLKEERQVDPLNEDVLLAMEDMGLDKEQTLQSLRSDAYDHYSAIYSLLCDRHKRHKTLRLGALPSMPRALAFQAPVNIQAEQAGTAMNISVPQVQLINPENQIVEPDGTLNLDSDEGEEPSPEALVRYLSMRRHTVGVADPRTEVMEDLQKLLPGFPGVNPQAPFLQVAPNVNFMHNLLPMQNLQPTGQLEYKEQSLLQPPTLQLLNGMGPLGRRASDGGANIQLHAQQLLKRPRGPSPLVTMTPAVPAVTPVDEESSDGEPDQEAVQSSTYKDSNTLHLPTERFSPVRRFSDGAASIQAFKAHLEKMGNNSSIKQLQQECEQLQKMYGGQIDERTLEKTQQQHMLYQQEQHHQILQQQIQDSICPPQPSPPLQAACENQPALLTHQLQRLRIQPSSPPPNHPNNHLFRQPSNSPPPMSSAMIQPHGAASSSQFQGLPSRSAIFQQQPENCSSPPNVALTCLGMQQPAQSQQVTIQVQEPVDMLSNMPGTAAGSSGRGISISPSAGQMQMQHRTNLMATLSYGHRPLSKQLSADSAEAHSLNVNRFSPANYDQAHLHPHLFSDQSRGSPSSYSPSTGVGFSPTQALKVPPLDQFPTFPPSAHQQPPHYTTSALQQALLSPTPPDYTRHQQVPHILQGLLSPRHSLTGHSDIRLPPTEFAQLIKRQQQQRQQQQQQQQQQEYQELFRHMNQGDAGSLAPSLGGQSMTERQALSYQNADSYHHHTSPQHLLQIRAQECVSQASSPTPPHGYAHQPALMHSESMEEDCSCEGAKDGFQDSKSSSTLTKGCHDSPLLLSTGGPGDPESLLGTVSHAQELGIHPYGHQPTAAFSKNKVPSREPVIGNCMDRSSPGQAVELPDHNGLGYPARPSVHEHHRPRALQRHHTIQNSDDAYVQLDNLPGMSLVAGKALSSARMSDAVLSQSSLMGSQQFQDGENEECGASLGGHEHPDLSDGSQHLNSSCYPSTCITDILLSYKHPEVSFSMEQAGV

SMILES | IC50 (SIK3) | IC50 (SIK2) | kinases inhibited less strongly than by PY1 [1] | IC50 (MC38 tumour cells) | sensitisation of MC38 tumour cells to the cytotoxic effect of TNF (MC38 tumour cells; in words) | IC50 (HCT116 tumour cells) | sensitisation of HCT116 tumour cells to the cytotoxic effect of TNF compared to PY1 (HCT116 tumour cells) | IC50 (PANC1 tumour cells) | sensitisation of PANC tumour cells to the cytotoxic effects of TNF compared to PY1 (PANC1 tumour cells) | inhibiting SIK3 compared to PY1 (SIK3) | inhibiting SIK2 compared to PY1 (SIK2) | selectivity towards SIK3 over SIK2 (SIK3) | kinases inhibited more strongly than by PY1 [1] | overall kinase profile compared to prior art compound PY1 [1]
COc1ccc(N2C(=O)N(c3c(C)nn(C)c3C)Cc3cnc(Nc4ccc(C5CCN(C)CC5)cc4OC)nc32)nc1 [AA4, 7-((2-methoxy-4-(l-methylpiperidin-4-yl)phenyl)amino)-1-(5-methoxypyridin-2-yl)-3-(1,3,5-trimethyl-lH-pyrazol-4-yl)-3,4-dihydropyrimido[4,5-d]pyrimidin-2(1H)-one] | > 10000 nM | 5000 to 10000 nM |  |  |  |  |  |  |  |  |  |  |  | 
COc1ccc(N2C(=O)N(c3c(CF)csc3Cl)Cc3cnc(Nc4ccc(C5CCN(C)CC5)cc4OC)nc32)nc1 [AA7, 3-(2-chloro-4-(fluoromethyl)thiophen-3-yl)-7-((2-methoxy-4-(l-methylpiperidin-4-yl)phenyl)amino)-1-(5-methoxypyridin-2-yl)-3,4-dihydropyrimido[4,5-d]pyrimidin-2(1H)-one] | 100 to 200 nM | 50 to 100 nM |  | 100 to 500 nM | surprisingly potent at sensitising cells to the cytotoxic effect of TNF | < 100 nM | much stronger effect compared to the prior art compound PY1 | 100 to 500 nM | stronger effect than PY1 |  |  |  |  | 
COc1ccc(N2C(=O)N(c3c(CF)csc3Cl)Cc3cnc(Nc4ccc(C5CCN(C)CC5)cc4OC)nc32)cc1 [AA10, 3-(2-chloro-4-(fluoromethyl)thiophen-3-yl)-7-((2-methoxy-4-(1-methylpiperidin-4-yl)phenyl)amino)-1-(4-methoxyphenyl)-3,4-dihydropyrimido[4,5-d]pyrimidin-2(1H)-one] | 100 to 200 nM | 50 to 100 nM |  | 1000 to 1500 nM |  | 1000 to 1500 nM |  | 1000 to 1500 nM |  |  |  |  |  | 
COc1ccc(N2C(=O)N(c3c(C(F)F)csc3Cl)Cc3cnc(Nc4ccc(C5CCN(C)CC5)cc4OC)nc32)nc1 [AA13, 3-(2-chloro-4-(difluoromethyl)thiophen-3-yl)-7-((2-methoxy-4-(1-methylpiperidin-4-yl)phenyl)amino)-1-(5-methoxypyridin-2-yl)-3,4-dihydropyrimido[4,5-d]pyrimidin-2(1H)-one] | 100 to 200 nM | 100 to 200 nM |  | 1000 to 1500 nM |  | > 1500 nM |  | > 1500 nM |  |  |  | increased selectively towards SIK3 over SIK2 |  | 

The next compounds have a lower IC50 (SIK3) than those just listed; values first:

IC50 (SIK3) | IC50 (SIK2) | kinases inhibited less strongly than by PY1 [1] | SMILES | IC50 (MC38 tumour cells) | sensitisation of MC38 tumour cells to the cytotoxic effect of TNF (MC38 tumour cells; in words) | IC50 (HCT116 tumour cells) | sensitisation of HCT116 tumour cells to the cytotoxic effect of TNF compared to PY1 (HCT116 tumour cells) | IC50 (PANC1 tumour cells) | sensitisation of PANC tumour cells to the cytotoxic effects of TNF compared to PY1 (PANC1 tumour cells) | inhibiting SIK3 compared to PY1 (SIK3) | inhibiting SIK2 compared to PY1 (SIK2) | selectivity towards SIK3 over SIK2 (SIK3) | kinases inhibited more strongly than by PY1 [1] | overall kinase profile compared to prior art compound PY1 [1]
< 50 nM | < 50 nM |  | COc1ccc(N2C(=O)N(c3c(CF)csc3Cl)Cc3cnc(Nc4ccc(C5CC(C)N(C)C(C)C5)cc4)nc32)nc1 (stereo not drawn) [AA8, 3-(2-chloro-4-(fluoromethyl)thiophen-3-yl)-1-(5-methoxypyridin-2-yl)-7-((4-(l,2,6-trimethylpiperidin-4-yl)phenyl)amino)-3,4-dihydropyrimido[4,5-d]pyrimidin-2(lH)-one] | 500 to 1000 nM |  | < 100 nM | much stronger effect compared to the prior art compound PY1 | 100 to 500 nM | stronger effect than PY1 | superior in inhibiting SIK2 and SIK3 compared to PY1 | superior in inhibiting SIK2 and SIK3 compared to PY1 |  |  | 
< 50 nM | < 50 nM |  | COc1ccc(N2C(=O)N(c3c(CF)csc3Cl)Cc3cnc(Nc4ccc(C5CCN(C)C(C)C5)cc4)nc32)nc1 (stereo not drawn) [AA9, 3-(2-chloro-4-(fluoromethyl)thiophen-3-yl)-7-((4-(l,2-dimethylpiperidin-4-yl)phenyl)amino)-1-(5-methoxypyridin-2-yl)-3,4-dihydropyrimido[4,5-d]pyrimidin-2(1H)-one] | 500 to 1000 nM |  | < 100 nM | much stronger effect compared to the prior art compound PY1 | 500 to 1000 nM |  | superior in inhibiting SIK2 and SIK3 compared to PY1 | superior in inhibiting SIK2 and SIK3 compared to PY1 |  |  | 
< 50 nM | 100 to 200 nM | BMX, TEC and in particular BTK | COc1cc(C2CCN(C)CC2)ccc1Nc1ncc2c(n1)N(C)C(=O)N(c1c(CF)csc1Cl)C2 [AA11, 3-(2-chloro-4-(fluoromethyl)thiophen-3-yl)-7-((2-methoxy-4-(1-methylpiperidin-4-yl)phenyl)amino)-1-methyl-3,4-dihydropyrimido[4,5-d]pyrimidin-2(1H)-one] | 1000 to 1500 nM |  | > 1500 nM |  | > 1500 nM |  |  |  | increased selectively towards SIK3 over SIK2 | BRAF, NEK2, PRK2, PKC, and in particular KIT, RIPK2, ABL2 and PDGF-alpha | substantially different profile of inhibition of the kinases compared to the prior art compound PY1
< 50 nM | < 50 nM |  | COCCN1C(=O)N(c2c(CF)csc2Cl)Cc2cnc(Nc3ccc(C4CCN(C)CC4)cc3OC)nc21 [AA12, 3-(2-chloro-4-(fluoromethyl)thiophen-3-yl)-7-((2-methoxy-4-(1-methylpiperidin-4-yl)phenyl)amino)-1-(2-methoxyethyl)-3,4-dihydropyrimido[4,5-d]pyrimidin-2(1H)-one] | 1000 to 1500 nM |  | > 1500 nM |  |  |  | superior in inhibiting SIK2 and SIK3 compared to PY1 | superior in inhibiting SIK2 and SIK3 compared to PY1 | increased selectively towards SIK3 over SIK2 |  | 
